# Key:
# [1] = test system: A431 cells which overexpresses EGFR; assay: Flow cytometry assay of binding to A431 cells; assay type: cell-based; details: 100 nM, 30 min on ice; FIG. 5b and c (confocal and flow cytometry)
# Experimental: FIG. 20 depicts the fluorescence intensity (measured by flow cytometry, λex=488 nm) of untreated A431 and MCF7 cells (ctrl) shown in dark grey fill (Blank), and cells treated with either GFP (100 nM, 30 min), or with ZEGFR-Fc-GFP (100 nM, 30 min) (shown by arrow), respectively. Forward scatter (FSC-A) versus side scatter (SSC-A) were used to gate intact cells.
# To study binding capacities of ZEGFR-Fc-GFP, A-431 (ATCC, USA) and MCF-7 (ATCC, US) live cells were washed three times with PBS (HyClone, USA), trypsinized by 0.05% Trypsin-EDTA (Gibco, USA), and then resuspended in chilled DMEM (Gibco, USA) with 10% FBS (Gibco, USA). One million cells of each cell line were then incubated with ZEGFR-Fc-GFP (100 nM) and GFP (100 nM) on ice for 30 min. After incubation, the cells were washed with chilled PBS for three times and analyzed by the Fortessa X-20 flow cytometer (BD, USA). The cytometer was set to record 10,000 events per sample, to excite the fluorophore with 488 nm laser, and to collect emitting fluorescent signals in 530/30 nm. The generated raw data were analyzed by Flowjo™ 10 (BD, USA).
# EGFR-positive A431 cells = assay: Live cell confocal imaging of binding to A431 cells; assay type: cell-based; details: confocal fluorescence microscopy, 100 nM, 30 min on ice; FIG. 21
# Experimental: ZEGFR-FC-GFP staining of the membrane was much brighter than that for GFP when the top left panel of each block is compared. The plasma membrane was stained with PKH26 red-fluorescent dye and is shown in the lower left panel and merged image of each block. Scale bar=20 μm.
# To visualize ZEGFR-Fc-GFP binding activities, A431 and MCF-7 cells were seeded on an 8-well chamber slide (ibidi, USA) and incubated at 37° C. under 5% CO2 overnight. The cells were stained with 2 μM PKH26 red-fluorescent dye (Sigma, USA) for 10 min at 37° C. The stained cells were then incubated with ZEGFR-Fc-GFP (100nM) and GFP (100nM) on ice for 30 min. After incubation, the cells were washed with chilled PBS for three times and fixed with cold 4% formaldehyde for 15 min. The fixed cells were imaged by the LSM 980 confocal microscope (Zeiss, Germany). Microscopic key settings are as follows: 1) excitation laser wavelengths: 488 nm and 561 nm; 2) emission fillers: 507-552 nm and 575-620 nm; 3) imaging mode: Z-stack. The 3D Z-stack images were processed into 2D images by the technique MIP (maximum intensity projection) using the Zen software (Zeiss, Germany).
substance,measurement,setting,value
ZEGFR-Fc-GFP: dual-ligated product of dimeric fusion protein ZEGFR-Fc-NQL (affibody ZEGFR and IgG Fc domain) with GI-GGGSGGGS-GFP,binding towards A431 cells,[1],specific binding
same,staining of the membrane compared with GFP,EGFR-positive A431 cells,much brighter

# From patent US20250270610A1, “Improving the Efficiency of PAL-Catalyzed Protein Ligation By A Cascade Enzymatic Scheme” (priority 2022, published 2025)
